Laboratory results published in ChEMBL document CHEMBL4304824, “Austalides V and W, new meroterpenoids from the fungus Aspergillus ustus and their antitumor activities” (Bioorg Med Chem Lett, 2019).
pIC50: −log10 of the molar value. Calls of active or inactive are those of the source. The rule behind the calls is not given here.

Assays:
[1] = tested on: T-24; experiment: Cytotoxicity against human T24 cells assessed as reduction in cell viability incubated for 48 hrs by xCELLigence RTCA analysis; format: functional, cell-based; conditions: T-24, 48 h
[2] = tested on: DU-145; experiment: Cytotoxicity against human DU145 cells assessed as reduction in cell viability incubated for 48 hrs by xCELLigence RTCA analysis; format: functional, cell-based; conditions: DU-145, 48 h
[3] = tested on: LNCaP; experiment: Cytotoxicity against human LNCAP cells assessed as reduction in cell viability incubated for 12 hrs by xCELLigence RTCA analysis; format: functional, cell-based
[4] = tested on: LNCaP; experiment: Inhibition of cell migration of human LNCAP cells at 8.9 uM measured every 10 mins for 24 hrs by xCELLigence RTCA analysis; format: functional, cell-based
[5] = tested on: LNCaP; experiment: Cytotoxicity against human LNCAP cells assessed as reduction in cell viability incubated for 48 hrs by xCELLigence RTCA analysis; format: functional, cell-based
[6] = tested on: LNCaP; experiment: Antiproliferation activity against human LNCAP cells assessed as reduction in cell density incubated for 72 hrs by microscopic method; format: functional, cell-based
[7] = tested on: LNCaP; experiment: Inhibition of Akt/mTOR pathway in human LNCAP cells assessed as reduction in AKT1 phosphorylation at S473/T308 residues at 50 uM incubated for 48 hrs by chemiluminescence reagent based autoradiography; format: cell-based
[8] = tested on: LNCaP; experiment: Cytotoxicity against human LNCAP cells assessed as reduction in cell viability measured after 25 hrs by xCELLigence RTCA analysis; format: functional, cell-based
[9] = molecular target: Proto-oncogene tyrosine-protein kinase Src (Homo sapiens) (UniProt P12931); experiment: Inhibition of c-Src phosphorylation at Y419 residue in human LNCAP cells at 50 uM incubated for 48 hrs by chemiluminescence reagent based autoradiography; format: cell-based
[10] = tested on: LNCaP; experiment: Effect on total HSP60 level in human LNCAP cells at 50 uM incubated for 48 hrs by chemiluminescence reagent based autoradiography; format: ADME, cell-based
[11] = tested on: LNCaP; experiment: Inhibition of Akt/mTOR pathway in human LNCAP cells assessed as reduction in AKT2 phosphorylation at S473/T308 residues at 50 uM incubated for 48 hrs by chemiluminescence reagent based autoradiography; format: cell-based
[12] = tested on: LNCaP; experiment: Inhibition of cell migration of human LNCAP cells at 8.8 uM measured every 10 mins for 24 hrs by xCELLigence RTCA analysis; format: functional, cell-based
[13] = tested on: LNCaP; experiment: Inhibition of Akt/mTOR pathway in human LNCAP cells assessed as reduction in AKT3 phosphorylation at S473/T308 residues at 50 uM incubated for 48 hrs by chemiluminescence reagent based autoradiography; format: cell-based
[14] = tested on: LNCaP; experiment: Inhibition of Akt/mTOR pathway in human LNCAP cells assessed as reduction in p70S6 kinase phosphorylation at T421/S424 residues at 50 uM incubated for 48 hrs by chemiluminescence reagent based autoradiography; format: cell-based
[15] = tested on: LNCaP; experiment: Inhibition of Akt/mTOR pathway in human LNCAP cells assessed as reduction in PRAS40 phosphorylation at T246 residue at 50 uM incubated for 48 hrs by chemiluminescence reagent based autoradiography; format: cell-based
[16] = tested on: LNCaP; experiment: Inhibition of Akt/mTOR pathway in human LNCAP cells assessed as reduction in mTOR phosphorylation at […] residue at 50 uM incubated for 48 hrs by chemiluminescence reagent based autoradiography; format: cell-based
[17] = molecular target: Focal adhesion kinase 1 (Homo sapiens) (UniProt Q05397); experiment: Inhibition of FAK phosphorylation at Y397 residue in human LNCAP cells at 50 uM incubated for 48 hrs by chemiluminescence reagent based autoradiography; format: cell-based
Sequence of Focal adhesion kinase 1 (Homo sapiens) (Q05397 2-1052 limits assumed): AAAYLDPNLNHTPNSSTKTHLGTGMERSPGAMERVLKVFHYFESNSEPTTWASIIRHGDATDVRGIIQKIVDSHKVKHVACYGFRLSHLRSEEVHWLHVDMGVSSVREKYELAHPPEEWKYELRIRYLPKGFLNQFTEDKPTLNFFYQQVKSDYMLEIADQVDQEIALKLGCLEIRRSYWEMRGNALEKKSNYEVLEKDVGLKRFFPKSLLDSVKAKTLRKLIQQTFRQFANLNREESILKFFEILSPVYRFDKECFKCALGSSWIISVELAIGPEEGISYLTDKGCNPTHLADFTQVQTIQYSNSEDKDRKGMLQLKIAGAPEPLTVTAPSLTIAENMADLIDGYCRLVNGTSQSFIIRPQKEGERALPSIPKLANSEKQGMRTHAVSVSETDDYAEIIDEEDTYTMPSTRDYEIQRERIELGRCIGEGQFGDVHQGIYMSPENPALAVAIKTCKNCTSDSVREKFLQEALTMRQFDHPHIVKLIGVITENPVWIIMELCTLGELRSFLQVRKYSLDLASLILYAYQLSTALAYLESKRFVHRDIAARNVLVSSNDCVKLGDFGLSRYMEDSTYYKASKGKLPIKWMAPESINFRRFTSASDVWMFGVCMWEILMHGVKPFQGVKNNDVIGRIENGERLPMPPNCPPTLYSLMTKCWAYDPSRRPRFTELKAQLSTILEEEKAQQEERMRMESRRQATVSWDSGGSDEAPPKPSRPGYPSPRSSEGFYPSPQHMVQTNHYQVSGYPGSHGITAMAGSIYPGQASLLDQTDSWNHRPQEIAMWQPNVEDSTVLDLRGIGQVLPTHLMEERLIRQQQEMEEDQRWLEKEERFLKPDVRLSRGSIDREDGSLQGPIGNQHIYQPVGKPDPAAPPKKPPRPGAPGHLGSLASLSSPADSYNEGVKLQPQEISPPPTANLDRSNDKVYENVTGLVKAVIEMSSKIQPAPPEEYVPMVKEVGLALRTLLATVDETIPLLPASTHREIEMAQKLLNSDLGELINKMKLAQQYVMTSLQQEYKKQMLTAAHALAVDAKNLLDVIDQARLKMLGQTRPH

Sequence of Proto-oncogene tyrosine-protein kinase Src (Homo sapiens) (P12931 2-536 limits assumed): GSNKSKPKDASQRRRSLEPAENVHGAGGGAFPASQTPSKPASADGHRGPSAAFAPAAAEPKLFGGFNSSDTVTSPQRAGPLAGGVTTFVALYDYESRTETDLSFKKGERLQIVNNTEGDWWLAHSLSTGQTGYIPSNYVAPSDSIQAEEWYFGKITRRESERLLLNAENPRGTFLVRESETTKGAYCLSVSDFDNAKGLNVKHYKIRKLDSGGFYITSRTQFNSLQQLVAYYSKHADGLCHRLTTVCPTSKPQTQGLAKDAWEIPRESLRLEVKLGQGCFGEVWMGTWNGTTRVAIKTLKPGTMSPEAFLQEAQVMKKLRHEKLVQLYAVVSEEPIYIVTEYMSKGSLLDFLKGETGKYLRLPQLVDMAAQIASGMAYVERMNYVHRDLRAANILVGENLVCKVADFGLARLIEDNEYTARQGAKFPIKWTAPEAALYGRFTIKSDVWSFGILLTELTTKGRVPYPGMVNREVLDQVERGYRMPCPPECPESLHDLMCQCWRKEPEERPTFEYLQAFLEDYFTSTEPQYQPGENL

Structure (SMILES)	pIC50 [1]	pIC50 [2]	inhibition [3]	inhibition [4]	pIC50 [5]	Activity [6]	inhibition [7]	inhibition [8]	inhibition [9]	Activity [10]	inhibition [11]	inhibition [12]	inhibition [13]	inhibition [14]	inhibition [15]	inhibition [16]	inhibition [17]
COc1c2c(c(C)c3c1C(=O)OC3)O[C@@]1(C)C[C@]3(O)OC[C@]4(C)O[C@@]5(OC)C[C@@H](OC(C)=O)[C@](C)([C@H]1C2)[C@]43O5	4.19	4.28	Dose-dependent effect	Active	4.70	Active	–	–	–	–	–	–	–	–	–	–	–
COc1c2c(c(C)c3c1C(=O)OC3)O[C@@]1(C)C[C@]3(O)OC[C@]4(C)O[C@@]5(OC)CC[C@](C)([C@H]1C2)[C@]43O5	4.14	4.14	–	–	4.57	Active	Active	Active	Active	Toxic	Active	Active	Active	Active	Active	Active	Active
